Structures are written as SMILES. “And” between values parts separate entries of the source, which are not always exact repeats. Equal entries are not always repeated.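 All cell lines were grown in 96-well plates and treated with compound for 48 hours. The concentration for 50% growth inhibition is given as GI50. At the TGI there is no net growth.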

Among the test systems are DU-145 prostate; SNB-75 CNS; NCI-H226 lung; HCT-116 colon; SR leukemia; SF-268 CNS; A498 renal; RXF 393 renal; SK-OV-3 ovarian; OVCAR-4 ovarian.
Assay in all cases: DTP human tumour cell line panel, 48 h

The GI50 is the concentration giving 50% growth inhibition. As a reminder, the TGI is the concentration giving total growth inhibition. A lower TGI goes with more potent growth arrest. Turning to `CC(C)CC(C/C=C1/CC(CO)(COC(=O)C(C)(C)C)OC1=O)CC(C)C` (centres undefined), the GI50 is 20.2 µM in the assay on DU-145 prostate; 3.34 µM and 14.1 µM in the assay with NCI-H226 lung. The TGI with DU-145 prostate was 49.2 µM and 11.5 µM; in the assay on SNB-75 CNS, 23.6 µM and 26.6 µM; in the assay with NCI-H226 lung, 17.6 µM and 28.5 µM; in the assay with HCT-116 colon it was 29.5 µM and 30.9 µM; with SR leukemia it was 26.4 µM; with SF-268 CNS, 26.4 µM and 25.4 µM. The TGI is 21.7 µM and 22.2 µM in the assay on A498 renal; 43.8 µM and 32.9 µM in the assay with RXF 393 renal; 39.7 µM with SK-OV-3 ovarian; 34.9 µM and 30.6 µM with OVCAR-4 ovarian.
As for `O=C(Nc1cc(Nc2ncccc2-c2ncnc3nc[nH]c23)ccc1F)c1cc(C(F)(F)F)cc(C(F)(F)F)c1`, the GI50 with DU-145 prostate was 4.16 µM; in the assay on SNB-75 CNS it was 1.9 µM; with NCI-H226 lung, 2.74 µM; in the assay on HCT-116 colon it was 0.601 µM; in the assay on SR leukemia, 2.09 µM; in the assay with SF-268 CNS, 3.17 µM. Further, the GI50 is 0.648 µM in the assay on A498 renal, 1.91 µM in the assay with RXF 393 renal, 2.78 µM in the assay with SK-OV-3 ovarian and 1.57 µM in the assay on OVCAR-4 ovarian. For the same compound, the concentration for total growth inhibition (TGI) in the assay on DU-145 prostate was greater than 10 µM; in the assay on SNB-75 CNS, 7.15 µM; in the assay on NCI-H226 lung, greater than 10 µM; in the assay on HCT-116 colon, 2.72 µM; in the assay with SR leukemia it was 5.67 µM; with SF-268 CNS, greater than 10 µM. Further, the TGI with A498 renal amounted to 3.92 µM; in the assay on RXF 393 renal it was 4.62 µM; in the assay on SK-OV-3 ovarian, 9.19 µM; in the assay on OVCAR-4 ovarian, 4.34 µM.
As for `N[C@H](CCC(=O)N[C@@H](Cc1c[nH]c2ccccc12)C(=O)O)C(=O)O`, the GI50 in the assay on DU-145 prostate, in the assay on SNB-75 CNS, with NCI-H226 lung, with HCT-116 colon, in the assay on SR leukemia and with SF-268 CNS was greater than 100 µM throughout. For the same compound, the GI50 in the assay with A498 renal, in the assay on RXF 393 renal, in the assay on SK-OV-3 ovarian and with OVCAR-4 ovarian was greater than 100 µM each time. Also, the TGI in the assay on DU-145 prostate, in the assay on SNB-75 CNS, with NCI-H226 lung, in the assay on HCT-116 colon, with SR leukemia and in the assay on SF-268 CNS was greater than 100 µM throughout. In addition, the TGI in the assay with A498 renal, in the assay on RXF 393 renal, with SK-OV-3 ovarian and in the assay on OVCAR-4 ovarian was greater than 100 µM each time.
For the compound `O=C(NCc1ccc(Cn2c(=O)sn(-c3ccccc3)c2=O)cc1)OCc1ccc2cccc(O)c2n1`, the GI50 in the assay on DU-145 prostate is 1.08 µM; in the assay with SNB-75 CNS it was 0.783 µM; in the assay with NCI-H226 lung, 1.27 µM; in the assay with HCT-116 colon, 0.259 µM; with SR leukemia, 0.383 µM; in the assay on SF-268 CNS it was 1.55 µM. Further, the GI50 in the assay on A498 renal is 0.382 µM; in the assay with RXF 393 renal, 0.457 µM; in the assay with SK-OV-3 ovarian it was 5.96 µM; with OVCAR-4 ovarian, 0.947 µM. For the same compound, the TGI in the assay with DU-145 prostate is 2.29 µM; in the assay with SNB-75 CNS, 2.08 µM; in the assay on NCI-H226 lung, 2.77 µM; in the assay on HCT-116 colon, 1.14 µM; in the assay with SR leukemia, greater than 100 µM; in the assay on SF-268 CNS, 3.04 µM. In addition, the TGI was found to be 1.89 µM in the assay with A498 renal, 1.71 µM in the assay on RXF 393 renal, 18.7 µM in the assay with SK-OV-3 ovarian and 2.28 µM in the assay with OVCAR-4 ovarian.
`CC(C)(C)[Si](C)(C)OC1[C@@H](CNC(=O)NC(=O)CCl)O[C@@H](n2cnc3c(N)ncnc32)[C@H]1O[Si](C)(C)C(C)(C)C` (some centres undefined): the GI50 was 2.05 µM in the assay with DU-145 prostate; 0.867 µM in the assay on SNB-75 CNS; 0.956 µM with NCI-H226 lung; 0.795 µM with HCT-116 colon; 0.162 µM with SR leukemia; 1.06 µM in the assay on SF-268 CNS. Also, the GI50 was 6.21 µM with A498 renal, 0.859 µM in the assay with RXF 393 renal, 1.05 µM in the assay with SK-OV-3 ovarian and 0.924 µM in the assay on OVCAR-4 ovarian. Besides, the TGI in the assay with DU-145 prostate was determined as 5.26 µM; with SNB-75 CNS, 2.47 µM; in the assay on NCI-H226 lung, 2 µM; with HCT-116 colon, 1.51 µM; in the assay with SR leukemia, 0.562 µM; in the assay with SF-268 CNS, 2.09 µM. For the same compound, the TGI was found to be 12.8 µM with A498 renal, 1.58 µM in the assay with RXF 393 renal, 2.01 µM with SK-OV-3 ovarian and 2.51 µM in the assay with OVCAR-4 ovarian.
Turning to `Nc1ccccc1O.O.O=C(O)C1[O][Sb][O]C1C(=O)O` (centres undefined), the GI50 with DU-145 prostate is 14.6 µM; in the assay with SNB-75 CNS it was 24.9 µM; in the assay on NCI-H226 lung, greater than 100 µM; in the assay with HCT-116 colon, 17.8 µM; in the assay on SR leukemia, 2.42 µM; with SF-268 CNS, 17.5 µM. The GI50 with A498 renal is greater than 90.3 µM; in the assay on RXF 393 renal, 6.35 µM; in the assay with SK-OV-3 ovarian, 88.3 µM; in the assay with OVCAR-4 ovarian, 16 µM. Besides, the TGI in the assay on DU-145 prostate was 27.8 µM; in the assay on SNB-75 CNS, 40.5 µM; with NCI-H226 lung, greater than 100 µM; with HCT-116 colon, 39.6 µM; in the assay on SR leukemia it was 50.6 µM; in the assay with SF-268 CNS, greater than 53.4 µM. Moreover, the TGI is greater than 100 µM in the assay on A498 renal, 16.7 µM with RXF 393 renal, greater than 100 µM with SK-OV-3 ovarian and 30.6 µM with OVCAR-4 ovarian.
For `C#CCOc1cccc(Nc2ncnc3c(NC(=O)C=C)cccc23)c1`, the GI50 in the assay on DU-145 prostate was 18.1 µM; with SNB-75 CNS it was 17.6 µM; in the assay on NCI-H226 lung, 25.5 µM; in the assay on HCT-116 colon, 17 µM; with SR leukemia, 4.37 µM; with SF-268 CNS it was 27.7 µM. For the same compound, the GI50 was 24.4 µM in the assay on A498 renal, 13.3 µM with RXF 393 renal, 38.2 µM in the assay with SK-OV-3 ovarian and 37.8 µM in the assay with OVCAR-4 ovarian. Moreover, the TGI in the assay with DU-145 prostate was greater than 100 µM; in the assay with SNB-75 CNS it was greater than 100 µM; in the assay on NCI-H226 lung it was 69.1 µM; in the assay on HCT-116 colon, 85.9 µM; in the assay on SR leukemia, greater than 100 µM; in the assay with SF-268 CNS it was greater than 100 µM. Moreover, the TGI is 64.4 µM with A498 renal, 39.7 µM with RXF 393 renal, greater than 100 µM with SK-OV-3 ovarian and greater than 100 µM with OVCAR-4 ovarian.
`NNCCc1ccc(NC(=O)CCCc2ccc(C(=O)Nc3ccccc3N)cc2)cc1`: the GI50 in the assay with DU-145 prostate is 14.5 µM; in the assay with SNB-75 CNS, 32.8 µM; in the assay on NCI-H226 lung, 16 µM; with HCT-116 colon it was 2.75 µM; in the assay on SR leukemia, 3.24 µM; with SF-268 CNS, 5.97 µM. In addition, the GI50 with A498 renal is 6.54 µM; in the assay with RXF 393 renal it was 12.6 µM; in the assay with SK-OV-3 ovarian, 18.2 µM; with OVCAR-4 ovarian, 42.4 µM. In addition, the TGI with DU-145 prostate, with SNB-75 CNS, in the assay with NCI-H226 lung, in the assay with HCT-116 colon, with SR leukemia and with SF-268 CNS was greater than 100 µM each time. The TGI in the assay with A498 renal was 28.5 µM; with RXF 393 renal, 53.9 µM; in the assay with SK-OV-3 ovarian, greater than 100 µM; in the assay with OVCAR-4 ovarian it was greater than 100 µM.
For the compound `CN(C)C(=S)SSC(=S)N(C)C`, the GI50 in the assay with DU-145 prostate was 20.6 µM; in the assay on SNB-75 CNS it was 15.2 µM; in the assay with NCI-H226 lung, 21.4 µM and > 78.4 µM and 38.3 µM; in the assay with SF-268 CNS, 15 µM and 42.7 µM and 16.1 µM; with A498 renal, 15.1 µM; in the assay on RXF 393 renal, 16.5 µM and 38.6 µM and 16.6 µM. Besides, the GI50 in the assay with SK-OV-3 ovarian was 37.1 µM and > 100 µM and 31.9 µM. The concentration for total growth inhibition (TGI) is 52.4 µM and > 100 µM in the assay with DU-145 prostate; 38.5 µM and > 100 µM in the assay on SNB-75 CNS; 84.6 µM and > 100 µM and > 65.8 µM in the assay on NCI-H226 lung; 28.9 µM and 30.4 µM and > 55.9 µM in the assay on HCT-116 colon; 74.6 µM and 27.8 µM and 34.8 µM with SR leukemia; 29 µM and > 100 µM and 32.8 µM in the assay with SF-268 CNS. For the same compound, the TGI is greater than 100 µM in the assay on A498 renal; 31 µM and > 62.6 µM and 32.6 µM in the assay on RXF 393 renal; greater than 100 µM in the assay on SK-OV-3 ovarian; 20.8 µM and 8.96 µM and 39.1 µM in the assay on OVCAR-4 ovarian.
